{
  "source": "patent US12507703B2",
  "about": "“Methods, devices and compositions for preserving human milk” (The Trustees of Princeton University, priority 2023, dated 2025)",
  "note": "Where “and” joins values, the source holds several entries; their conditions need not be identical. Identical values can stand only once.",
  "data": [
    {"test_system": "lipase", "test": "Lipase/lipolysis assay (EnzChek Lipase Substrate, quenched BODIPY-fatty acid conjugate) on stored human milk; also: test concentration or dose not given here", "values": [
      {"smiles": "CC(C)[C@@H](C)/C=C/[C@@H](C)[C@H]1CC[C@H]2[C@@H]3CC=C4C[C@@H](O)CC[C@]4(C)[C@H]3CC[C@]12C", "note": "[Brassicasterol]", "Lipase (RFU)": "931.4963 RFU"},
      {"smiles": "COc1cc(-c2oc3cc(O[C@@H]4O[C@H](CO)[C@@H](O)[C@H](O)[C@H]4O)cc(O)c3c(=O)c2O)ccc1O", "note": "[Brassicin]", "Lipase (RFU)": "1089.017 RFU"},
      {"smiles": "CC(C)[C@H](C)[C@@H](O)[C@H](O)[C@@H](C)[C@H]1CC[C@H]2[C@@H]3COC(=O)[C@H]4C[C@H](O)[C@H](O)C[C@]4(C)[C@H]3CC[C@]12C", "note": "[Brassinolide]", "Lipase (RFU)": "945.8414 RFU"},
      {"smiles": "O=C1CC(C(=O)O)c2c1oc(=O)c1cc(O)c(O)c(O)c21", "note": "(stereo not shown) [Brevifolincarboxylic acid]", "Lipase (RFU)": "760.1752 RFU"},
      {"smiles": "CCN(Cc1cccc(S(=O)(=O)[O-])c1)c1ccc(C(=C2C=CC(=[N+](CC)Cc3cccc(S(=O)(=O)[O-])c3)C=C2)c2ccccc2S(=O)(=O)[O-])cc1.[Na+].[Na+]", "note": "[Brilliant Blue FCF]", "Lipase (RFU)": "652.1115 RFU"},
      {"smiles": "CCCCOC(=O)c1ccc(O)cc1", "note": "[Butylparaben]", "Lipase (RFU)": "948.3985 RFU"},
      {"smiles": "CCCCC1OC(=O)c2ccccc21", "note": "(stereo not shown) [Butylphthalide]", "Lipase (RFU)": "989.7778 RFU"},
      {"smiles": "C[C@@]12CCc3occc3[C@H]1CC[C@@]13C[C@@H](CC[C@H]12)[C@@](O)(CO)C3", "note": "[Cafestol]", "Lipase (RFU)": "1003.112 RFU"},
      {"smiles": "O=C([O-])[O-].[Ca+2]", "note": "[Calcium carbonate]", "Lipase (RFU)": "646.797 RFU"},
      {"smiles": "CC1(C)CC[C@]2(C(=O)O)CC[C@]3(C)C(=CC[C@@H]4[C@@]5(C)CC[C@H](O[C@@H]6O[C@H](C(=O)O)[C@@H](O)[C@H](O)[C@H]6O)C(C)(C)[C@@H]5CC[C@]43C)[C@@H]2C1", "note": "[Calenduloside E]", "Lipase (RFU)": "1034.138 RFU"},
      {"smiles": "c1ccc2c(-c3nccs3)c[nH]c2c1", "note": "[Camalexin]", "Lipase (RFU)": "1018.047 RFU"},
      {"smiles": "C[C@@H]1O[C@@H](OC[C@H]2O[C@@H](Oc3c(-c4ccc(O)cc4)oc4cc(O)cc(O)c4c3=O)[C@H](O[C@@H]3OC[C@@H](O)[C@H](O)[C@H]3O)[C@@H](O)[C@@H]2O)[C@H](O)[C@H](O)[C@H]1O", "note": "[Camelliaside B]", "Lipase (RFU)": "927.4235 RFU"},
      {"smiles": "CC(C)[C@H](C)CC[C@@H](C)[C@H]1CC[C@H]2[C@@H]3CC=C4C[C@@H](O)CC[C@]4(C)[C@H]3CC[C@]12C", "note": "[Campesterol]", "Lipase (RFU)": "912.1206 RFU"},
      {"smiles": "CCCCCC(=O)O", "note": "[Caproic Acid]", "Lipase (RFU)": "905.3416 RFU"},
      {"smiles": "COc1cc(COC(=O)CCCC/C=C/C(C)C)ccc1O", "note": "[Capsiate]", "Lipase (RFU)": "1078.823 RFU"},
      {"smiles": "NC(=O)OP(=O)(O)O", "note": "[Carbamyl Phosphate]", "Lipase (RFU)": "699.376 RFU"},
      {"smiles": "Cc1ccc(C(C)C)cc1O", "note": "[Carvacrol]", "Lipase (RFU)": "695.2525 RFU and 1199.593 RFU"},
      {"smiles": "C=C1CC[C@H]2O[C@]2(C)CC[C@@H]2[C@@H]1CC2(C)C", "note": "[Caryophyllene oxide]", "Lipase (RFU)": "891.7497 RFU and 923.1149 RFU"},
      {"smiles": "COc1cc(O[C@@H]2O[C@H](CO[C@@H]3O[C@H](CO)[C@@H](O)[C@H](O)[C@H]3O)[C@@H](O)[C@H](O)[C@H]2O)c2c(O)c3c(=O)oc(C)cc3cc2c1", "note": "[Cassiaside C]", "Lipase (RFU)": "979.0974 RFU"},
      {"smiles": "COn1cc(CC#N)c2ccccc21", "note": "[Caulilexin C]", "Lipase (RFU)": "998.4752 RFU"},
      {"smiles": "CC(=O)O[C@]1(C)CC[C@@]23C[C@@H]1C(C)(C)[C@@H]2CC[C@H]3C", "note": "[Cedryl acetate]", "Lipase (RFU)": "1088.309 RFU"},
      {"smiles": "O=C1C[C@@H](c2ccc(O[C@@H]3O[C@H](CO)[C@@H](O)[C@H](O)[C@H]3O)cc2)Oc2cc(O)cc(O)c21", "note": "[Choerospondin]", "Lipase (RFU)": "1121.626 RFU"},
      {"smiles": "CC(C)CCC[C@@H](C)[C@H]1CC[C@H]2[C@@H]3CCC4=CC(=O)CC[C@]4(C)[C@H]3CC[C@]12C", "note": "[Cholestenone]", "Lipase (RFU)": "787.5717 RFU"},
      {"smiles": "CCCCCCCCCCCCCCCCCCCCCC(=O)O[C@H]1CC[C@@]2(C)C(=CC[C@H]3[C@@H]4CC[C@H]([C@H](C)CCCC(C)C)[C@@]4(C)CC[C@@H]32)C1", "note": "[Cholesteryl behenate]", "Lipase (RFU)": "935.1979 RFU"},
      {"smiles": "CCCCC/C=C\\C/C=C\\CCCCCCCC(=O)O[C@H]1CC[C@@]2(C)C(=CC[C@H]3[C@@H]4CC[C@H]([C@H](C)CCCC(C)C)[C@@]4(C)CC[C@@H]32)C1", "note": "[Cholesteryl linoleate]", "Lipase (RFU)": "922.3562 RFU"}
    ]}
  ]
}
